Test results: PubChem BioAssay AID1963969 (Molecular Pharmacology Branch, DTP, NCI, 2024)

System: 817829-284-R-J1-PDC multi-cell spheroid viability
Assay: Anticancer human tumor 817829-284-R-J1-PDC patient-derived colon adenocarcinoma cell line growth inhibition [PI3K]
Settings: for IC50: curve of first compound; for viability, T/C: stronger effect = lower value; active = viability on the fitted dose curve at most 10% of control; inactive = the rest
Outline: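 We assembled tumor spheroids that included a stromal compartment of HUVEC and MSCs, then exposed them to targeted agents alone and together with PI3K pathway inhibitors. Concentration series descended by half-log from clinically achievable Cmax levels. Viability served as the endpoint.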

[1] = second compound 0.0316 µM, first compound 0.0316 µM
[2] = second compound 0.0316 µM, first compound 0.1 µM
[3] = second compound 0.0316 µM, first compound 0.316 µM
[4] = second compound 0.0316 µM, first compound 1 µM
[5] = second compound 0.0316 µM, first compound 3.16 µM
[6] = second compound 0.0316 µM, first compound 10 µM
[7] = second compound 0.1 µM, first compound 0.0316 µM
[8] = second compound 0.1 µM, first compound 0.1 µM
[9] = second compound 0.1 µM, first compound 0.316 µM
[10] = second compound 0.1 µM, first compound 1 µM
[11] = second compound 0.1 µM, first compound 3.16 µM
[12] = second compound 0.1 µM, first compound 10 µM
[13] = second compound 0.316 µM, first compound 0.0316 µM
[14] = second compound 0.316 µM, first compound 0.1 µM
[15] = second compound 0.316 µM, first compound 0.316 µM
[16] = second compound 0.316 µM, first compound 1 µM
[17] = second compound 0.316 µM, first compound 3.16 µM
[18] = second compound 0.316 µM, first compound 10 µM
[19] = second compound 1 µM, first compound 0.0316 µM
[20] = second compound 1 µM, first compound 0.1 µM
[21] = second compound 1 µM, first compound 0.316 µM
[22] = second compound 1 µM, first compound 1 µM
[23] = second compound 1 µM, first compound 3.16 µM
[24] = second compound 1 µM, first compound 10 µM
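Also: spheroids exposed to agents for seven days before readout.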
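For viability, T/C in this document: percent of vehicle DMSO control viability which is 100%.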

Cn1nccc1Nc1nccc(-c2ccn(C(CO)c3ccc(Cl)c(F)c3)c(=O)c2)n1 (centres undefined) + CC(Nc1ccc2c(c1)OCCn1cc(N3C(=O)OCC3C(F)F)nc1-2)C(N)=O
6060 nM: IC50 (second compound 0.00316 µM)
7180 nM: IC50 (second compound 0.0316 µM)
> 10000 nM: IC50 (second compound 1 µM)
6970 nM: IC50 (second compound 0.1 µM)
inactive: viability, T/C (second compound 0.00316 µM, first compound 0.0316 µM) 87.6% | viability, T/C (second compound 0.00316 µM, first compound 0.1 µM) 72.7% | viability, T/C (second compound 0.00316 µM, first compound 0.316 µM) 88.3% | viability, T/C (second compound 0.00316 µM, first compound 1 µM) 72.5% | viability, T/C (second compound 0.00316 µM, first compound 3.16 µM) 83.5% | viability, T/C (second compound 0.00316 µM, first compound 10 µM) 26.2% | viability, T/C (second compound 0.01 µM, first compound 0.0316 µM) 70% | viability, T/C (second compound 0.01 µM, first compound 0.1 µM) 79.8% | viability, T/C (second compound 0.01 µM, first compound 0.316 µM) 76.7% | viability, T/C (second compound 0.01 µM, first compound 1 µM) 70.9% | viability, T/C (second compound 0.01 µM, first compound 3.16 µM) 64.1% | viability, T/C (second compound 0.01 µM, first compound 10 µM) 22.2% | viability, T/C [1] 90.6% | viability, T/C [2] 102% | viability, T/C [3] 90.2% | viability, T/C [4] 105% | viability, T/C [5] 98.5% | viability, T/C [6] 30.9% | viability, T/C [7] 58.9% | viability, T/C [8] 84.9% | viability, T/C [9] 92.3% | viability, T/C [10] 115% | viability, T/C [11] 87% | viability, T/C [12] 33% | viability, T/C [13] 110% | viability, T/C [14] 67.6% | viability, T/C [15] 80.5% | viability, T/C [16] 60.8% | viability, T/C [17] 65.7% | viability, T/C [18] 33.1% | viability, T/C [19] 55.9% | viability, T/C [20] 63.7% | viability, T/C [21] 72.4% | viability, T/C [22] 80.3% | viability, T/C [23] 75.9% | viability, T/C [24] 34.4%
4630 nM: IC50 (second compound 0.01 µM)
3890 nM: IC50 (second compound 0.316 µM)

CC(C)NCC(C(=O)N1CCN(c2ncnc3c2C(C)CC3O)CC1)c1ccc(Cl)cc1 (centres undefined) + Cc1nc(NC(=O)N2CCCC2C(N)=O)sc1-c1ccnc(C(C)(C)C(F)(F)F)c1
38.8 nM: IC50 (second compound 10 µM)
193 nM: IC50 (second compound 0.1 µM)
203 nM: IC50 (second compound 0.316 µM)
249 nM: IC50 (second compound 0.0316 µM)
165 nM: IC50 (second compound 1 µM)
inactive: viability, T/C [1] 80.1% | viability, T/C [2] 62.1% | viability, T/C [3] 51.1% | viability, T/C [4] 21.8% | viability, T/C [5] 19.6% | viability, T/C [6] 13.5% | viability, T/C [7] 82.5% | viability, T/C [8] 72.9% | viability, T/C [9] 32.4% | viability, T/C [10] 21.5% | viability, T/C [11] 19.4% | viability, T/C [12] 13.1% | viability, T/C [13] 55.5% | viability, T/C [14] 107% | viability, T/C [15] 30.5% | viability, T/C [16] 24.4% | viability, T/C [17] 17.3% | viability, T/C [18] 11% | viability, T/C [19] 69.3% | viability, T/C [20] 66.3% | viability, T/C [21] 29.6% | viability, T/C [22] 23% | viability, T/C [23] 16.6% | viability, T/C [24] 8.39% | viability, T/C (second compound 3.16 µM, first compound 0.0316 µM) 69.3% | viability, T/C (second compound 3.16 µM, first compound 0.1 µM) 40.2% | viability, T/C (second compound 3.16 µM, first compound 0.316 µM) 23.9% | viability, T/C (second compound 3.16 µM, first compound 1 µM) 19.2% | viability, T/C (second compound 3.16 µM, first compound 3.16 µM) 15.3% | viability, T/C (second compound 10 µM, first compound 0.0316 µM) 52.8% | viability, T/C (second compound 10 µM, first compound 0.1 µM) 39.5% | viability, T/C (second compound 10 µM, first compound 0.316 µM) 29% | viability, T/C (second compound 10 µM, first compound 1 µM) 24.6% | viability, T/C (second compound 10 µM, first compound 3.16 µM) 12.5%
active: viability, T/C (second compound 3.16 µM, first compound 10 µM) 6.49% | viability, T/C (second compound 10 µM, first compound 10 µM) 6.18%
69.2 nM: IC50 (second compound 3.16 µM)
